# Publication PMC5556071, “ATR inhibition facilitates targeting of leukemia dependence on convergent nucleotide biosynthetic pathways” (Nature Communications, 2017)
# Several values for one entry are separate records, joined by “and”; a condition that tells them apart may be missing. Identical values can stand only once.
# Test system: CEM cells
# Assay: Non-targeted LC-MS metabolite profiling: percent [13C6]glucose labeling and relative metabolite levels
# Format: cell-based, human
# Conditions: CEM cells, 12 h following release from G1 arrest, replicates #1-#6
# Description: To further investigate the functions of dCK and ATR at the G1/S transition in CEM cells, a non-targeted liquid chromatography mass spectrometry (LC-MS) assay was used to determine the utilization of labeled [^13C6]glucose and [^13C9,^15N3]deoxycytidine, the main substrates for de novo and salvage nucleotide biosynthesis, respectively. Of the 166 metabolites identified in CEM cells treated with VE-822 and/or dCKi, 105 metabolites found in all four treatment groups contained glucose-derived ^13C atoms. […] These metabolites included intermediates such as rUTP, rCTP and rCDP in the de novo dCTP biosynthesis (Fig. 1d). […] However, several deoxyribonucleotides, including dCTP, were below the limit of detection of the non-targeted LC-MS approach, raising the concern that the sensitivity of this assay is not sufficient to measure the contribution of the salvage pathway or the ratio of de novo and salvage biosynthesis to these pools. To address this problem, a newly developed targeted MS assay was developed (Fig. 1e and Supplementary Fig. 3). In this assay, samples containing either extracted dNTPs or hydrolyzed DNA from labeled cells are separated by LC for detection by a triple quadrupole mass spectrometer using multiple reaction monitoring (LC-MS/MS-MRM). The first (Q1) and third (Q3) quadrupoles function as mass filters, while the second (Q2) quadrupole serves as a collision chamber (Fig. 1e). For instance, to profile the biosynthetic composition of deoxycytidine (dC) derived from hydrolyzed DNA or dCTP, an intact, protonated dC ion is selected in Q1, followed by fragmentation of the glycosidic bond, which releases protonated cytosine in Q2, that is filtered in Q3 and detected to generate an ion chromatogram. The peak areas for the ion chromatograms of salvage [^13C9,^15N3]dC (red trace), de novo [^13C5]dC (black trace, from [^13C6]glucose) and unlabeled dC (gray trace) (Fig. 1e) are used to determine the relative contributions of the de novo and salvage routes both to dCTP pools and to DNA-incorporated dCTP.
# Cells were transferred into RPMI-1640 without glucose and supplemented with 10% dialyzed FBS (Gibco) containing the following labeled substrates: precursors for de novo [U-^13C6]glucose (Sigma-Aldrich, 389374) at 11 mM; precursors for purine salvage [U-^13C10,^15N5]dA (Cambridge Isotopes, CIL 3896), [^15N5]dA (Cambridge Isotopes, NLM-3895) and [^15N5]dG (Cambridge Isotopes, NLM-3899) at 5 µM or as indicated; and precursors for pyrimidine salvage: [U-^13C9,^15N3]dC (Silantes, 124603602) and [U-^13C10,^15N2]dT (Cambridge Isotopes, CNLM-3902) at 5 µM and [^15N2]orotate (Cambridge Isotopes, NLM-1048) at indicated concentrations. The cells were incubated for 12 h or as indicated before sample collection and processing. […]
# Non-targeted LC-MS metabolic assays. 1 x 10^6 cells were washed with ice-cold 150 mM ammonium acetate twice before adding 1 mL of ice-cold 80% methanol with 10 nM norvaline as an internal standard. After vigorous vortexing, samples were centrifuged at maximum speed, the aqueous layer was transferred to a glass vial and the metabolites were dried under vacuum. Metabolites were resuspended in 50 μL 70% acetonitrile (ACN) and 5 μL of this solution used for the mass spectrometer-based analysis. The analysis was performed on a Q Exactive (Thermo Scientific) in polarity-switching mode with positive voltage 4.0 kV and negative voltage 4.0 kV. The mass spectrometer was coupled to an UltiMate 3000RSLC (Thermo Scientific) UHPLC system. Mobile phase A was 5 mM ammonium acetate (NH4AcO), pH 9.9, B was acetonitrile and the separation achieved on a Luna […] NH2 100 A column (150 × 2.0 mm, Phenomenex). The flow was 200 μL/min, and the gradient ran from 15% A to 95% A in 18 min, followed by an isocratic step for 9 min and re-equilibration for 7 min. Metabolites were detected and quantified as area under the curve based on retention time and accurate mass (≤ 3 p.p.m.) using the TraceFinder 3.1 (Thermo Scientific). Relative amounts of […]
compound,measurement,setting,value
COc1ccc(-c2nc([C@@H](C)Sc3nc(N)cc(N)n3)c(C)s2)cc1OCCNS(C)(=O)=O [dCKi],"Glucose labeling, Trp (C00078)",,0.00%
same,"Glucose labeling, Val (C00183)",,0.00%
same,"Relative level, PEP",,0.343
same,"Glucose labeling, Isocaproate",listed as D,0.00% (5×) and -2.22e-14%
same,"Glucose labeling, Lac",listed as D,17.43% and 30.68% and 33.28% and 15.68% and 13.00% and 14.89%
same,"Glucose labeling, Leu/Ile",listed as D,-2.22e-14% and 0.00% (4×) and 1.11e-14%
same,"Glucose labeling, Mal",listed as D,22.81% and 24.17% and 24.40% and 21.37% and 22.21% and 23.38%
same,"Glucose labeling, Met",listed as D,0.00216% and 0.00198% and 0.00236% and 0.00202% and 0.00192% and 0.00223%
same,"Glucose labeling, N-Carbamoyl-L-aspartate",listed as D,0.000983% and 0.12% (2×) and 0.00101% and 100.00% (2×)
same,"Glucose labeling, NADP+",listed as D,100.00% (4×) and 0.00% (2×)
same,"Glucose labeling, Ornithine",listed as D,0.08% (2×) and 0.12% (3×) and 0.09%
same,"Glucose labeling, Orotate",listed as D,5.20% and 3.14% and 4.02% and 100.00% and 0.12% (2×)
same,"Glucose labeling, Orotidine",listed as D,49.18% and 49.16% and 49.11% and 54.80% and 53.82% and 55.45%
same,"Glucose labeling, P-Choline",listed as D,0.00228% and 0.00166% (2×) and 0.00229% and 0.00101% and 0.00171%
same,"Glucose labeling, P-Ser",listed as D,21.30% and 20.75% and 19.61% and 16.22% and 19.77% and 14.08%
same,"Glucose labeling, Palmitate",listed as D,0.0136% and 0.0179% and 0.09% and 0.03% and 0.0457% and 0.04%
same,"Glucose labeling, Pantothenate",listed as D,0.00% (5×) and 1.11e-14%
same,"Glucose labeling, Pro",listed as D,9.90% and 11.07% and 10.77% and 9.63% and 9.83% and 9.85%
same,"Glucose labeling, Pro-OH",listed as D,0.00135% and 0.00138% and 0.000869% and 0.0017% and 0.00248% and 0.00239%
same,"Glucose labeling, R5P",listed as D,87.51% and 100.00% (5×)
same,"Glucose labeling, S7P",listed as D,85.34% and 43.01% and 49.65% and 0.26% and 34.90% and 73.97%
same,"Glucose labeling, SAM",listed as D,73.81% and 73.09% and 74.83% and 72.35% and 72.18% and 72.31%
same,"Glucose labeling, Sarc (C00213)",listed as D,0.0243% (2×) and 0.0369% (3×) and 0.0225%
same,"Glucose labeling, Ser (C00065)",listed as D,13.87% and 15.01% and 14.51% and 12.51% and 11.83% and 11.82%
same,"Glucose labeling, Shikimate (C00493)",listed as D,0.00% (5×) and 1.11e-14%
same,"Glucose labeling, Succ (C00042)",listed as D,0.0276% and 1.49% and 1.88% and 0.0331% and 0.0737% (2×)
same,"Glucose labeling, T (C00214)",listed as D,0.15% and 0.44% and 0.32% and 0.24% and 0.03% and 0.02%
same,"Glucose labeling, Thymine (C00178)",listed as D,0.02% (2×) and 0.00812% and 0.0214% and 0.0432% and 0.0317%
same,"Glucose labeling, Tyr (C00082)",listed as D,0.00% (5×) and 1.11e-14%
same,"Glucose labeling, Tyramine (C00483)",listed as D,0.00% (5×) and 1.11e-14%
same,"Glucose labeling, UDP (C00015)",listed as D,74.72% and 81.32% and 85.65% and 45.74% and 66.67% and 72.12%
same,"Glucose labeling, UDP-Glc (C00029)",listed as D,95.49% and 96.74% and 98.34% and 91.90% and 85.90% and 94.22%
same,"Glucose labeling, UDP-GlcNAc (C00043)",listed as D,91.41% and 90.20% and 90.50% and 87.89% and 87.54% and 87.94%
same,"Glucose labeling, UMP (C00105)",listed as D,79.30% and 82.81% and 83.09% and 50.51% and 65.12% and 69.81%
same,"Glucose labeling, UTP (C00075)",listed as D,90.44% and 89.69% and 89.62% and 94.73% and 88.15% and 87.27%
same,"Glucose labeling, Uracil (C00106)",listed as D,0.0737% (3×) and 0.06% and 0.05% and 0.065%
same,"Glucose labeling, Uric Acid (C00366)",listed as D,0.00% (4×) and -2.22e-14% (2×)
same,"Glucose labeling, Urocanate (C00785)",listed as D,0.00% (5×) and 1.11e-14%
same,"Glucose labeling, Vit-C (C00072)",listed as D,0.00% (4×) and 1.11e-14% (2×)
same,"Glucose labeling, Xanthine (C00385)",listed as D,0.10% (2×) and 0.12% (3×) and 0.08%
same,"Relative level, Isocaproate",listed as D,1.0 (2×) and 0.8 and 0.9 (3×)
same,"Relative level, Lac",listed as D,1.1 and 0.9 and 1.0 and 0.446 and 0.548 and 0.7
same,"Relative level, Leu/Ile",listed as D,1.0 and 1.3 and 1.5 and 0.8 (2×) and 0.9
same,"Relative level, Lys",listed as D,1.2 (2×) and 1.5 and 0.8 (2×) and 0.9
same,"Relative level, Mal",listed as D,0.8 and 1.0 and 1.4 and 0.339 and 0.53 and 0.65
same,"Relative level, Met",listed as D,1.0 and 1.3 and 1.4 and 0.8 (2×) and 0.9
same,"Relative level, N-Carbamoyl-L-aspartate",listed as D,0.7 and 1.5 and 2.9 and 0.5
same,"Relative level, NAD+",listed as D,0.8 and 1.1 (2×) and 1.3 and 0.553 and 0.7
same,"Relative level, NADP+",listed as D,1.6 and 0.273
same,"Relative level, Nicotinamide",listed as D,1.3 and 1.4 and 1.2 and 0.7 and 0.743 and 0.527
same,"Relative level, Ornithine",listed as D,1.6 and 0.9 and 1.1 and 0.8 (2×) and 1.0
same,"Relative level, Orotate",listed as D,0.468 and 0.9 and 0.8 and 0.0556 and 0.0189
same,"Relative level, Orotidine",listed as D,1.2 and 1.6 and 1.5 and 0.8 (2×) and 0.9
same,"Relative level, P-Choline",listed as D,1.0 and 1.1 and 1.4 and 0.5 (2×) and 0.65
same,"Relative level, P-Creatine",listed as D,0.8 and 0.6 and 1.6 and 2.2 and 1.2 and 1.5
same,"Relative level, P-EtA",listed as D,0.9 and 0.452 and 1.3 and 0.5 and 0.6 and 0.8
same,"Relative level, P-Ser",listed as D,1.2 and 1.3 (2×) and 0.3 and 0.317 and 0.334
same,"Relative level, Palmitate",listed as D,1.1 (4×) and 0.85 and 0.9
same,"Relative level, Pantothenate",listed as D,1.2 and 1.6 and 1.7 and 0.9 (3×)
same,"Relative level, Phe",listed as D,1.1 and 1.4 and 1.6 and 0.9 (2×) and 1.0
same,"Relative level, Pipecolate",listed as D,1.2 and 1.1 and 1.4 and 0.8 and 0.7 and 0.9
same,"Relative level, Pro",listed as D,1.0 and 1.3 (2×) and 0.8 (2×) and 0.753
same,"Relative level, Pro-OH",listed as D,1.1 and 1.2 and 1.3 and 0.8 (2×) and 0.75
same,"Relative level, Pyr",listed as D,0.171 and 2.0 and 11.3 and 1.7 and 3.4 and 3.3
same,"Relative level, R5P",listed as D,0.9 and 0.4 and 2.2 and 0.2
